Test results from ChEMBL document CHEMBL1201862, “PubChem BioAssay data set” (2004).
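Tested at 5 concentrations; 48 h exposure; 96-well plates; endpoints linearly interpolated, else capped at highest concentration. Abbreviation: GI50, concentration required for 50% inhibition of growth.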 Calls of active or inactive are those of the source. No stated cut-off is given here; in the data, active = GI50 up to about 1.1 µM and inactive = higher.

Legend:
Test in all cases: inhibition of tumour cell growth, NCI panel, 48 h
CAKI-1 = test system: CAKI-1
HOP-62 = test system: HOP-62
HOP-92 = test system: HOP-92
HT-29 = test system: HT-29
IGROV-1 = test system: IGROV-1
MCF7 = test system: MCF7
NCI-H226 = test system: NCI-H226
NCI-H23 = test system: NCI-H23
OVCAR-3 = test system: OVCAR-3
OVCAR-8 = test system: OVCAR-8
RPMI-8226 = test system: RPMI-8226
SF-268 = test system: SF-268
SF-295 = test system: SF-295
SF-539 = test system: SF-539
SK-OV-3 = test system: SK-OV-3
SNB-19 = test system: SNB-19
SW-620 = test system: SW-620
TK-10 = test system: TK-10
U-251 = test system: U-251
UACC-257 = test system: UACC-257

Compound | GI50 (CAKI-1) | GI50 (HOP-62) | GI50 (HOP-92) | GI50 (HT-29) | GI50 (IGROV-1) | GI50 (MCF7) | GI50 (NCI-H226) | GI50 (NCI-H23) | GI50 (OVCAR-3) | GI50 (OVCAR-8) | GI50 (RPMI-8226) | GI50 (SF-268) | GI50 (SF-295) | GI50 (SF-539) | GI50 (SK-OV-3) | GI50 (SNB-19) | GI50 (SW-620) | GI50 (TK-10) | GI50 (U-251) | GI50 (UACC-257)
O=c1c2c(F)c(F)c(F)c(F)c2sc2nccn12 | 19 µM (inactive) | 22.4 µM (inactive) | 19.9 µM (inactive) | 16.9 µM (inactive) | 17.4 µM (inactive) | 17.4 µM (inactive) | 25.2 µM (inactive) | 15.5 µM (inactive) | 14.4 µM (inactive) | 19.2 µM (inactive) | 16.7 µM (inactive) | 18 µM (inactive) | 17.9 µM (inactive) | 17.5 µM (inactive) | 18.9 µM (inactive) | 19.8 µM (inactive) | 17.3 µM (inactive) | 18.4 µM (inactive) | 14.9 µM (inactive) | 13 µM (inactive)
CSc1nc(-c2ccc(C)cc2)c(C#N)c(=O)[nH]1 | > 100 µM (inactive) | > 100 µM (inactive) | 85.3 µM (inactive) | > 100 µM (inactive) | > 100 µM (inactive) | > 100 µM (inactive) | > 100 µM (inactive) | > 100 µM (inactive) | > 100 µM (inactive) | > 100 µM (inactive) | > 100 µM (inactive) | > 100 µM (inactive) | > 100 µM (inactive) | > 100 µM (inactive) | > 100 µM (inactive) | > 100 µM (inactive) | > 100 µM (inactive) | > 100 µM (inactive) | > 100 µM (inactive) | > 100 µM (inactive)
Cc1cc(S(=O)(=O)NC2=Nc3ccc(Cl)cc3C(c3ccccc3)N2)c(S)cc1Cl (stereo not given) | > 100 µM (inactive) | 81.3 µM (inactive) | > 100 µM (inactive) | > 100 µM (inactive) | > 100 µM (inactive) | > 100 µM (inactive) | 15.4 µM (inactive) | > 100 µM (inactive) | > 100 µM (inactive) | > 100 µM (inactive) | 97.1 µM (inactive) | 9.12 µM (inactive) | 20.9 µM (inactive) | > 100 µM (inactive) | > 100 µM (inactive) | 28.5 µM (inactive) | > 100 µM (inactive) | > 100 µM (inactive) | 33.8 µM (inactive) | > 100 µM (inactive)
Clc1ccc(-c2nn3c(-c4ccncc4)nnc3s2)cc1 | > 100 µM (inactive) | 20.8 µM (inactive) | 41.6 µM (inactive) | > 100 µM (inactive) | 64.4 µM (inactive) | > 100 µM (inactive) | > 100 µM (inactive) | > 100 µM (inactive) | > 100 µM (inactive) | > 100 µM (inactive) | > 100 µM (inactive) | 37.4 µM (inactive) | 62.1 µM (inactive) | > 100 µM (inactive) | 40.1 µM (inactive) | 59.2 µM (inactive) | > 100 µM (inactive) | > 100 µM (inactive) | 25.9 µM (inactive) | > 100 µM (inactive)
CCCCn1c(C)c(C(=O)CC)c(C(=O)NCCN2CCN(c3ccccc3Cl)CC2)c1C | 16.5 µM (inactive) | 20.2 µM (inactive) | 14.1 µM (inactive) | 13.4 µM (inactive) | 16.7 µM (inactive) | 18.8 µM (inactive) | 20.3 µM (inactive) | 14.6 µM (inactive) | 21.1 µM (inactive) | 17.3 µM (inactive) | 16.3 µM (inactive) | 18.2 µM (inactive) | 17.9 µM (inactive) | 18.1 µM (inactive) | 19.4 µM (inactive) | 15.8 µM (inactive) | 47.1 µM (inactive) | 19.7 µM (inactive) | 16.6 µM (inactive) | 13.4 µM (inactive)
CN(C)C(=O)OC1=CC2CCC(C1)N2C (stereo not given) | > 100 µM (inactive) | > 100 µM (inactive) | > 100 µM (inactive) | > 100 µM (inactive) | 71.4 µM (inactive) | 66.1 µM (inactive) | 0.685 µM (active) | > 100 µM (inactive) | > 100 µM (inactive) | > 100 µM (inactive) | > 100 µM (inactive) | > 100 µM (inactive) | > 100 µM (inactive) | > 100 µM (inactive) | > 100 µM (inactive) | > 100 µM (inactive) | > 100 µM (inactive) | > 100 µM (inactive) | 87.3 µM (inactive) | > 100 µM (inactive)
NS(=O)(=O)c1cc(C(=O)O)c(Cl)c([N+](=O)[O-])c1Cl | > 100 µM (inactive) | > 100 µM (inactive) | > 100 µM (inactive) | > 100 µM (inactive) | > 100 µM (inactive) | > 100 µM (inactive) | > 100 µM (inactive) | > 100 µM (inactive) | > 100 µM (inactive) | > 100 µM (inactive) | > 100 µM (inactive) | > 100 µM (inactive) | > 100 µM (inactive) | > 100 µM (inactive) | > 100 µM (inactive) | > 100 µM (inactive) | > 100 µM (inactive) | > 100 µM (inactive) | > 100 µM (inactive) | > 100 µM (inactive)
CCSc1c2cc(OC)ccc2nc2ccc(OC)cc12 | 9.27 µM (inactive) | 19.1 µM (inactive) | > 60.8 µM (inactive) | 17.8 µM (inactive) | 18.3 µM (inactive) | 4.99 µM (inactive) | 11.9 µM (inactive) | 9.44 µM (inactive) | 16.9 µM (inactive) | 16.4 µM (inactive) | 4.24 µM (inactive) | 10.9 µM (inactive) | 22.4 µM (inactive) | 15.3 µM (inactive) | 23.3 µM (inactive) | 26.2 µM (inactive) | 17.7 µM (inactive) | 9.64 µM (inactive) | 12.5 µM (inactive) | 9.98 µM (inactive)
COC(=O)c1c(C)[nH]c2c1cc(O)c1nc(C)c(C)nc12 | > 100 µM (inactive) | 18.7 µM (inactive) | 37.9 µM (inactive) | > 100 µM (inactive) | > 100 µM (inactive) | 50.9 µM (inactive) | > 100 µM (inactive) | 49.4 µM (inactive) | > 100 µM (inactive) | > 100 µM (inactive) | > 100 µM (inactive) | 49.2 µM (inactive) | 23.6 µM (inactive) | 34.3 µM (inactive) | 70 µM (inactive) | > 100 µM (inactive) | > 100 µM (inactive) | 29.2 µM (inactive) | 60.3 µM (inactive) | > 100 µM (inactive)
C#C[C@]1(O)CC[C@H]2[C@@H]3CCC4=C/C(=N\OCCN5CCCCC5)CC[C@]4(C)[C@H]3CC[C@@]21C | 6.21 µM (inactive) | 11 µM (inactive) | 15 µM (inactive) | 6.67 µM (inactive) | 7.18 µM (inactive) | 3.34 µM (inactive) | 17.2 µM (inactive) | 3.83 µM (inactive) | 5.15 µM (inactive) | 8.02 µM (inactive) | 2.43 µM (inactive) | 6.44 µM (inactive) | 3.56 µM (inactive) | 4.11 µM (inactive) | 16 µM (inactive) | 6.9 µM (inactive) | 4.33 µM (inactive) | 7.28 µM (inactive) | 9.68 µM (inactive) | 3.98 µM (inactive)
CCCCCCCCSC1=C(Cl)C(=O)C(OC)=C(OC)C1=O | 12.3 µM (inactive) | 17.2 µM (inactive) | 17 µM (inactive) | 16.9 µM (inactive) | 14.1 µM (inactive) | 3.94 µM (inactive) | 12.4 µM (inactive) | 13 µM (inactive) | 7.14 µM (inactive) | 12 µM (inactive) | 0.52 µM (active) | 12.4 µM (inactive) | 12.5 µM (inactive) | 14.2 µM (inactive) | 23.1 µM (inactive) | 10.5 µM (inactive) | 10.6 µM (inactive) | 14.1 µM (inactive) | 10.5 µM (inactive) | 5.6 µM (inactive)
C=CCOC1=C(OC(C)=O)C(C2COC(C)(C)O2)OC1=O (stereo not given) | 1.95 µM (inactive) | > 100 µM (inactive) | 17.7 µM (inactive) | 19.9 µM (inactive) | 31.6 µM (inactive) | 16.7 µM (inactive) | 95.3 µM (inactive) | 17.8 µM (inactive) | 17.9 µM (inactive) | 38.8 µM (inactive) | 22.1 µM (inactive) | 31.6 µM (inactive) | 36 µM (inactive) | 33.2 µM (inactive) | > 100 µM (inactive) | > 100 µM (inactive) | 16.5 µM (inactive) | 29.7 µM (inactive) | 26.5 µM (inactive) | 18.2 µM (inactive)
CCCCCCCCCCCCCCCC(=O)OCC1OC(OC)C2NP(=O)(N(CCCl)CCCl)OC1C2O (stereo not given) | 0.752 µM (active) | 1 µM (active) | 0.822 µM (active) | 17.1 µM (inactive) | 19 µM (inactive) | 0.366 µM (active) | 10.9 µM (inactive) | 1.21 µM (inactive) | 3.16 µM (inactive) | 2.51 µM (inactive) | 2.51 µM (inactive) | 1.67 µM (inactive) | 4.48 µM (inactive) | 0.887 µM (active) | 11.5 µM (inactive) | 2.61 µM (inactive) | 2.22 µM (inactive) | 10.9 µM (inactive) | 1.32 µM (inactive) | 12.1 µM (inactive)
Cc1cc2nc3c(N)nn(CCN(C)C)c3nc2cc1C | 39.3 µM (inactive) | 26.4 µM (inactive) | 38.5 µM (inactive) | 27.4 µM (inactive) | 27 µM (inactive) | 29.2 µM (inactive) | 11.2 µM (inactive) | 38.2 µM (inactive) | 55 µM (inactive) | 33.8 µM (inactive) | 63.7 µM (inactive) | 38.5 µM (inactive) | 78.7 µM (inactive) | 28.1 µM (inactive) | 45.2 µM (inactive) | 40.7 µM (inactive) | 38.7 µM (inactive) | 41.4 µM (inactive) | 33.1 µM (inactive) | 41.7 µM (inactive)
